Assay results taken from the supplement of paper PMC10307832.

Key:
Assay in all cases: relative viability (nuclei count vs DMSO), 5 days (fraction); higher = more cells survive
[1] = compound: CN(C)C/C=C/C(=O)Nc1cc2c(Nc3ccc(F)c(Cl)c3)ncnc2cc1O[C@H]1CCOC1 [Afatinib] + CS(=O)(=O)N1CCN(Cc2cc3nc(-c4cccc5[nH]ncc45)nc(N4CCOCC4)c3s2)CC1 [Pictilisib] (partner 1 µM)
Procedure, shortened: (§1)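 A single step with final 0.05% Triton X-100, 1% formaldehyde and 1 ug/ml Hoechst fixed the cells and stained nuclei 5 days after treatment. Lung cancer cell lines in 1536-well plates had been treated by pin tool the day after seeding with one drug alone or a fixed anchor-drug dose plus five library-drug doses (not always all listed) in √10 steps, and nuclei were counted on 4× images. Relative viability is the ratio of nuclei in treated wells to nuclei in vehicle wells, taken as the median of duplicate plates.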

[2] = compound: CN(C)C/C=C/C(=O)Nc1cc2c(Nc3ccc(F)c(Cl)c3)ncnc2cc1O[C@H]1CCOC1 [Afatinib] + Cc1nc(NC(=O)N2CCC[C@H]2C(N)=O)sc1-c1ccnc(C(C)(C)C(F)(F)F)c1 [Alpelisib] (partner 2 µM)
Procedure, shortened: as §1

[3] = compound: CN(C)C/C=C/C(=O)Nc1cc2c(Nc3ccc(F)c(Cl)c3)ncnc2cc1O[C@H]1CCOC1 [Afatinib] + Nc1ncn([C@H]2C[C@H](O)[C@@H](CO)O2)c(=O)n1 [Decitabine] (partner 2 µM)
Procedure, shortened: as §1

[4] = compound: CN(C)C/C=C/C(=O)Nc1cc2c(Nc3ccc(F)c(Cl)c3)ncnc2cc1O[C@H]1CCOC1 [Afatinib] + C[C@]1(O)C[C@@H](c2nc(-c3ccc4ccc(-c5ccccc5)nc4c3)c3c(N)nccn32)C1 [Linsitinib] (partner 1 µM)
Procedure, shortened: as §1

| Cell Line | relative viability ([1]; first compound 0.005 µM) | relative viability ([1]; first compound 0.01581 µM) | relative viability ([1]; first compound 0.05 µM) | relative viability ([1]; first compound 0.1581 µM) | relative viability ([1]; first compound 0.5 µM) | relative viability ([2]; first compound 0.005 µM) | relative viability ([2]; first compound 0.01581 µM) | relative viability ([2]; first compound 0.05 µM) | relative viability ([2]; first compound 0.1581 µM) | relative viability ([2]; first compound 0.5 µM) | relative viability ([3]; first compound 0.005 µM) | relative viability ([3]; first compound 0.01581 µM) | relative viability ([3]; first compound 0.05 µM) | relative viability ([3]; first compound 0.1581 µM) | relative viability ([3]; first compound 0.5 µM) | relative viability ([4]; first compound 0.005 µM) | relative viability ([4]; first compound 0.01581 µM) | relative viability ([4]; first compound 0.05 µM) | relative viability ([4]; first compound 0.1581 µM) | relative viability ([4]; first compound 0.5 µM) |
| --- | --- | --- | --- | --- | --- | --- | --- | --- | --- | --- | --- | --- | --- | --- | --- | --- | --- | --- | --- | --- |
| COR-L 105 | 0.359 | 0.355 | 0.302 | 0.252 | 0.35 | 0.934 | 0.45 | 0.353 | 0.255 | 0.241 | 0.552 | 0.433 | 0.415 | 0.338 | 0.356 | 0.418 | 0.207 | 0.403 | 0.258 | 0.278 |
| LK-2 | 0.546 | – | 0.485 | 0.596 | 0.535 | 1.34 | – | 1.04 | 1.12 | 1.12 | 0.41 | 0.258 | 0.288 | 0.328 | 0.301 | 0.6 | 0.589 | 0.742 | 0.478 | 0.666 |
| NCI-H727 | 0.315 | 0.401 | 0.306 | 0.279 | 0.281 | 0.579 | 0.462 | 0.503 | 0.417 | 0.561 | 0.826 | 0.534 | 0.831 | 0.761 | 0.829 | 0.282 | 0.307 | 0.284 | 0.267 | 0.28 |
| RERF-LC-KJ | 0.543 | 0.507 | 0.414 | 0.35 | 0.392 | 0.784 | 0.636 | 0.601 | 0.572 | 0.502 | 0.646 | 0.613 | 0.673 | 0.501 | 0.635 | 0.888 | 0.9 | 0.76 | 0.656 | 0.716 |
| NCI-H2023 | 0.248 | 0.233 | 0.261 | 0.216 | 0.239 | 0.608 | 0.544 | 0.446 | 0.408 | 0.434 | 0.234 | 0.197 | 0.211 | 0.2 | 0.234 | 0.577 | 0.494 | 0.453 | 0.355 | 0.414 |
| NCI-H322M | 0.441 | 0.396 | 0.351 | 0.327 | 0.279 | 0.666 | 0.519 | 0.495 | 0.384 | 0.335 | 0.637 | 0.509 | 0.55 | 0.502 | 0.479 | 0.847 | 0.616 | 0.468 | 0.419 | 0.588 |
| NCI-H1666 | 0.329 | 0.252 | 0.344 | – | 0.345 | 0.968 | 0.605 | 0.505 | – | 0.497 | 0.702 | 0.67 | 0.642 | 0.562 | 0.657 | 0.724 | 0.743 | 0.56 | – | 0.561 |
| NCI-H1648 | – | – | – | – | – | – | – | – | – | – | 0.551 | 0.419 | 0.378 | 0.417 | 0.34 | – | – | – | – | – |
| NCI-H2087 | 1.12 | 0.907 | 0.86 | 0.904 | 0.72 | 1.23 | 1.18 | 1 | 1.28 | 1.02 | 0.336 | 0.227 | 0.262 | 0.209 | 0.25 | 0.985 | 0.916 | 1.01 | 0.918 | 0.986 |
| LU99A | 0.345 | 0.395 | 0.308 | 0.349 | 0.295 | 0.557 | 0.468 | 0.438 | 0.452 | 0.489 | 0.903 | 0.93 | 0.929 | 0.873 | 0.964 | 0.509 | 0.562 | 0.488 | 0.453 | 0.477 |
| HCC-366 | 0.143 | 0.123 | 0.224 | 0.134 | 0.191 | 0.375 | 0.423 | 0.41 | 0.308 | 0.485 | 0.293 | 0.407 | 0.383 | 0.324 | 0.34 | 0.764 | 0.669 | 0.56 | 0.541 | 0.618 |
| EKVX | 0.391 | 0.346 | 0.203 | 0.118 | 0.104 | 0.713 | 0.704 | 0.46 | 0.187 | 0.156 | 0.248 | 0.208 | 0.218 | 0.159 | 0.171 | 0.702 | 0.768 | 0.421 | 0.171 | 0.134 |
| NCI-H522 | – | – | – | – | – | – | – | – | – | – | 0.644 | 0.672 | 0.736 | 0.655 | 0.581 | – | – | – | – | – |
| NCI-H1755 | 0.433 | 0.435 | 0.41 | 0.368 | 0.358 | 0.492 | 0.89 | 0.882 | 0.888 | 0.929 | 0.725 | 0.693 | 0.728 | 0.695 | 0.661 | 0.979 | 0.992 | 0.997 | 0.938 | 0.995 |
| NCI-H647 | 0.407 | – | 0.457 | 0.459 | 0.453 | 1.22 | 1.13 | 1.17 | 1.03 | 1.05 | 0.459 | 0.499 | 0.425 | 0.315 | 0.419 | 1.1 | 1.22 | 1.24 | 1.27 | 1.18 |
| LC-2-ad | 0.617 | 0.427 | 0.439 | 0.359 | 0.375 | 0.892 | 0.441 | 0.819 | 0.687 | 0.784 | 0.769 | 0.866 | 0.786 | 0.694 | 0.767 | 0.935 | 0.817 | 0.794 | 0.696 | 0.682 |
| NCI-H1793 | 0.36 | 0.23 | 0.362 | 0.39 | 0.31 | 0.57 | 0.658 | 0.555 | 0.544 | 0.527 | 0.43 | 0.344 | 0.329 | 0.27 | 0.417 | 0.566 | 0.431 | 0.61 | 0.461 | 0.514 |
| HCC-827 | 0.295 | 0.324 | 0.312 | 0.37 | 0.226 | 0.172 | 0.157 | 0.183 | 0.17 | 0.184 | 0.162 | 0.155 | 0.178 | 0.174 | 0.161 | 0.202 | 0.163 | 0.18 | 0.172 | 0.176 |
